The text below walks through data of US5214063A, “4-aminobutyric acid compounds, compositions and methods of use for treating disorders related to a dysfunction of GABAB receptors” (Adir et Compagnie, priority 1990, dated 1993).

The experiment deals with hippocampal preparations (CA3 pyramidal cells). As to the kind of experiment: Inhibition of excitation activity induced by convulsants (bicucullin) in hippocampal preparations. The format is cell-based. Conditions: 10 min; excitation induced by bicucullin (50 μM), compound perfused 10 minutes, adult female rat hippocampal preparations; read-out: inhibiting concentration 50 (IC50). On the procedure: Hippocampal preparations were prepared from the brains of sacrificed adult female rats. Transverse sections were placed in a preservative medium. After 1 hour and 30 minutes' incubation, the isolated preparations were placed under registration, perfused with a saline solution and oxygenated. Spontaneous potentials appear which are associated with CA3 pyramidal cells. Excitation is induced by the addition of bicucullin (50 μM).
The compounds of the invention, at various concentrations, or baclofen are then added.
The baclofen or the compounds of the invention are perfused for periods of 10 minutes. The excitation rate is calculated during the four minutes preceding the perfusion of baclofen or the compounds of the invention and during the last four minutes of the perfusion of the products to be studied.
The inhibition is expressed as percentage excitation in relation to the initial rate, which permits the determination of an inhibiting concentration 50 (IC50). The compounds of the invention have an IC50 of from 5 to 20 μM; baclofen in this test has an IC50 of approximately 50 μM.

Turning to `NCC(CC(=O)O)c1ccc(Cl)cc1` (stereo not shown) [baclofen, 4-amino-3-(4-chlorophenyl)butyric acid], the IC50 is around 50 µM.
